This passage reports EC50 results from patent publication US9920010B2, “CXCR7 receptor modulators” (IDORSIA PHARMACEUTICALS LTD, priority 2013, dated 2018).

pEC50: −log10 of the molar value.

T1 sequence (P25106 whole entry): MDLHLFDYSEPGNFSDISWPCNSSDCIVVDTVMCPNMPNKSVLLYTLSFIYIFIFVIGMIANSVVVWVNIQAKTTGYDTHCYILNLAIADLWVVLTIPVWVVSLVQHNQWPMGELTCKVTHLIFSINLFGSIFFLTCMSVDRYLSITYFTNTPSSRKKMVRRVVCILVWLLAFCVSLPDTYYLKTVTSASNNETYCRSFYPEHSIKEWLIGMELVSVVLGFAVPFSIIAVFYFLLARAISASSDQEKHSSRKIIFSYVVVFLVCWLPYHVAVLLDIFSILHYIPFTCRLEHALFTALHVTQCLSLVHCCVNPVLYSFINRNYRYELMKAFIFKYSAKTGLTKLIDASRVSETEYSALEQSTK
T1 sequence (P32121 whole entry partner): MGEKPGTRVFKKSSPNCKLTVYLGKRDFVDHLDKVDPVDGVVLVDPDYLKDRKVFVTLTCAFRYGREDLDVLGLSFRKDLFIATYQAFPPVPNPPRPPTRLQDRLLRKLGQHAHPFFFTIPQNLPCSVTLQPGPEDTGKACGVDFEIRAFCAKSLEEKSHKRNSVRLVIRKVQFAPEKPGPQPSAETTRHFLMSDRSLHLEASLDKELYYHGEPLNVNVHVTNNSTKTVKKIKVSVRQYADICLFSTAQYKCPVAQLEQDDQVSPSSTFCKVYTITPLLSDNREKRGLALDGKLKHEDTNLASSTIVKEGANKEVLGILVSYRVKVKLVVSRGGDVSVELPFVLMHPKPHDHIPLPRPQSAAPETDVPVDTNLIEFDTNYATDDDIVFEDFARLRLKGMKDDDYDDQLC

This assay has as its target T1, CXCR7 (Homo sapiens, UniProt P25106).
T1 construct: host or cells: CHO-K1 (PathHunter CHO-K1 CXCR7 b-arrestin cell line, stably transfected)
As to the kind of experiment: PathHunter CHO-K1 CXCR7 b-arrestin recruitment assay (CXCR7 agonistic activity). It is filed as cell-based. The note with it: PathHunter CHO-K1 CXCR7 b-arrestin cell line. In outline:
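Stable CHO-K1 line with C-terminally ProLink-tagged CXCR7 and β-arrestin 2–EA fusion; β-arrestin recruitment restores β-gal activity, read by chemiluminescence after 1 h RT detection. Cells seeded 24 h, starved in OPTIMEM 3–4 h, exposed to compounds 90 min at 37 °C in HBSS/HEPES/BSA. Geometric-mean EC50 from repeated measurements.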
Take `CN(C)CCN(Cc1ccccc1C(F)(F)F)C(=O)CNc1cccc2c1CCN(c1nc(C(F)(F)F)cs1)C2` [Example 376, N-(2-Dimethylamino-ethyl)-N-(2-trifluoromethyl-benzyl)-2-[2-(4-trifluoromethyl-thiazol-2-yl)-1,2,3,4-tetrahydro-isoquinolin-5-ylamino]-acetamide]: the pEC50 was 7.57.
`O=C(CNc1cccc2c1CCN(CC1CC1)C2)N(Cc1ccccc1C(F)(F)F)CC1CCNC1` (racemic) [compound 441] gave a pEC50 of 8.30.
`CN(C)CCN(Cc1ccccc1)C(=O)COc1cccc2c1CN(C(=O)c1ccccc1)CC2` [Example 207, 2-(2-Benzoyl-1,2,3,4-tetrahydro-isoquinolin-8-yloxy)-N-benzyl-N-(2-dimethylamino-ethyl)-acetamide] had a pEC50 of 8.30.
Under `O=C(CNc1cccc2c1CCN(C(=O)[C@@H]1C[C@@H]1F)C2)N(CCN1CCC(F)(F)CC1)Cc1ncccc1Cl` (racemic) [Example 294, rac-N-(3-Chloro-pyridin-2-ylmethyl)-N-[2-(4,4-difluoro-piperidin-1-yl)-ethyl]-2-[2-((1S*,2S*)-2-fluoro-cyclopropanecarbonyl)-1,2,3,4-tetrahydro-isoquinolin-5-ylamino]-acetamide] stands 6.63.
Under `CNCCN(Cc1ncccc1C(F)(F)F)C(=O)CNc1cccc2c1CCN(C(=O)C1CCC1)C2` [compound 414, 2-(2-Cyclobutanecarbonyl-1,2,3,4-tetrahydro-isoquinolin-5-ylamino)-N-(2-methylamino-ethyl)-N-(3-trifluoromethyl-pyridin-2-ylmethyl)-acetamide] stands 7.43.
Then `C/C(=C\c1ccccc1)CN(CCN(C)C)C(=O)CNc1cccc2c1CCN(CC1CC1)C2` [Example 45, 2-(2-Cyclopropylmethyl-1,2,3,4-tetrahydro-isoquinolin-5-ylamino)-N-(2-dimethylamino-ethyl)-N-((E)-2-methyl-3-phenyl-allyl)-acetamide], with 8.10; and `CC(C)(O)CN(Cc1ncccc1Cl)C(=O)CNc1cccc2c1CN(C1CCC1)CC2` [compound 457], with 6.63; and `CCN1CCc2cccc(NCC(=O)N(Cc3ccccc3)C3CCN(C)C3)c2C1` (racemic) [compound 512], with 7.25.
Take `O=C(CNc1cccc2c1CCN(CC1CC1)C2)N(CCN1CCC(F)(F)CC1)Cc1ncccc1C(F)(F)F` [Example 279, 2-(2-Cyclopropylmethyl-1,2,3,4-tetrahydro-isoquinolin-5-ylamino)-N-[2-(4,4-difluoro-piperidin-1-yl)-ethyl]-N-(3-trifluoromethyl-pyridin-2-ylmethyl)-acetamide]: the pEC50 was 8.10.
Under `CNC(=O)N1CCc2cccc(NCC(=O)N(CCN(C)C)Cc3ccccc3C(F)(F)F)c2C1` [Example 547, 8-({[(2-Dimethylamino-ethyl)-(2-trifluoromethyl-benzyl)-carbamoyl]-methyl}-amino)-3,4-dihydro-1H-isoquinoline-2-carboxylic acid methylamide] stands 7.82; under `CCN1CCc2cccc(NCC(=O)N(CCC3CCCN3C)Cc3ccccc3)c2C1` (racemic) [compound 508], 7.47.
Then `COCCN1CCc2c(CCC(=O)N(CCN(C)C)Cc3ccccc3C(F)(F)F)cccc2C1` [Example 335, N-(2-Dimethylamino-ethyl)-3-[2-(2-methoxy-ethyl)-1,2,3,4-tetrahydro-isoquinolin-5-yl]-N-(2-trifluoromethyl-benzyl)-propionamide], with 7.64; and `O=C(CNc1cccc2c1CCN(C(=O)[C@@H]1C[C@@H]1F)C2)N(Cc1ccccc1C(F)(F)F)CC1(O)CCCC1` (racemic) [Example 372, rac-2-[2-((1S*,2S*)-2-Fluoro-cyclopropanecarbonyl)-1,2,3,4-tetrahydro-isoquinolin-5-ylamino]-N-(1-hydroxy-cyclopentylmethyl)-N-(2-trifluoromethyl-benzyl)-acetamide], with 6.57.
